Experimental data from paper PMC9939319 (Acta Pharmaceutica Sinica. B, 2022).

Molecular target: TRPA1 (Homo sapiens, UniProt O75762)
Test: calcium flux in TRPA1-overexpressing HEK-293 cells
Assay type: cell-based

TRPA1, sequence (O75762 whole entry): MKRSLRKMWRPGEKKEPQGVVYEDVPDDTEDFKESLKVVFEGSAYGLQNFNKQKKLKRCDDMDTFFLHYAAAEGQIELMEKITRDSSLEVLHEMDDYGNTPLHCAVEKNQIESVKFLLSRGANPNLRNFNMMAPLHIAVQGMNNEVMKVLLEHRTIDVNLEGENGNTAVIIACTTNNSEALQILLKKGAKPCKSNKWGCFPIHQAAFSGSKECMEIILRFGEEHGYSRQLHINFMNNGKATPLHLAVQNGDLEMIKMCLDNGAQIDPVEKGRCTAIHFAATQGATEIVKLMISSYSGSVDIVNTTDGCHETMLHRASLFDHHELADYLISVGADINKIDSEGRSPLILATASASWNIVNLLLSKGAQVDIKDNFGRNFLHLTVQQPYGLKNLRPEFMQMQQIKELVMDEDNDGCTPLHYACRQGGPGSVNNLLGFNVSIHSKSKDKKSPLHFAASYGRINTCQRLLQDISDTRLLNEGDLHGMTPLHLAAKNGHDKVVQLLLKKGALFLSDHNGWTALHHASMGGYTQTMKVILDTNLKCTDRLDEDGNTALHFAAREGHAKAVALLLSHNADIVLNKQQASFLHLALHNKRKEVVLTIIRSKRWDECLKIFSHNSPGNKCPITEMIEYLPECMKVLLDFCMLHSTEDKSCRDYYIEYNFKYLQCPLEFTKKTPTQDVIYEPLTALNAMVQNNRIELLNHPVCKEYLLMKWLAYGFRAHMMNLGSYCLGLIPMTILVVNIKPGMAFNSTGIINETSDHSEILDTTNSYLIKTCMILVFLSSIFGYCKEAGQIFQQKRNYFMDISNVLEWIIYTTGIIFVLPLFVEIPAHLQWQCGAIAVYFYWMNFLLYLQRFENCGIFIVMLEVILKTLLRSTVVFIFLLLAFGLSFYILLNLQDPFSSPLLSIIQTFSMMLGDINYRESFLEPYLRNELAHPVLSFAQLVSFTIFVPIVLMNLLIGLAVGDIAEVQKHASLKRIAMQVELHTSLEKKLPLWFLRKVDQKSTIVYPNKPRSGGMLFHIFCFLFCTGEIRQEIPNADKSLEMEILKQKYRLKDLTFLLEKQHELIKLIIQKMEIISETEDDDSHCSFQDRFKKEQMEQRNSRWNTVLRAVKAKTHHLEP

EC50: 225 µM
SMILES: CC(C)(C)c1ccc(O)c(C(C)(C)C)c1 [2,4-DTBP]
